In US20150250911A1, “MALODOR COUNTERACTING COMPOSITIONS” (GIVAUDAN, S.A., priority 2012, published 2015):

Columns and labels:
[1] = Sensory tests of compounds of formula (I) against 4 malodour compounds; set-up: species or system human; key: ++++: no malodour present/strong reduction in malodour; +++: medium reduction in malodour; ++: weak malodour reduction; +: no change from control; ◯: worse than control; conditions: reference malodour sample scored +
Protocol: (§1) Sensory studies were performed in 120 ml Beetson jar. The test compounds were prepared in DEP (=Diethylphtalate) and pipetted onto a desized woven cotton piece of cloth placed at the bottom of a jar. Where two or more compounds were tested in the same jar, they were applied to separate areas of the cotton cloth. Prior the first assessment and between assessments, the jars were incubated at room temperature for one hour so that the headspace did reach equilibrium.
The same procedures as described in Example 5 have been followed.
The compounds of formula (I) were assessed by the trained volunteers against 4 malodour compounds, namely isovaleric acid, dimethyl disulfide, 2-methyl-3-mercaptobutan-1-ol, and 3-hydroxy-3-methyl hexanoic acid.
For the sensory test, participants were given the reference malodour sample and were told that this scored+on a scale as indicated below. They were then asked to assess and score the test jars in the specified sequence, with a 20 second gap between jars. The jars were given to the assessors blind in random permutations, with each volunteer smelling all permutations in duplicate.
The following score scale was used:
++++: no malodour present/strong reduction in malodour +++: medium reduction in malodour ++: weak malodour reduction +: no change from control ◯: worse than control

[2] = Sensory study in jars: malodour score by trained volunteers, DMDS malodour; set-up: species or system human; conditions: for Malodour Score (arith. means): 0-5 scale (4 = no change from control)
Protocol: as §1
(§2) For the sensory test, participants were given a reference malodour sample (comprising the same ingredients as the jar with the malodour) and were told that this scored 4 on a 0-5 scale. They were then asked to assess and score three test jars on a 0-5 scale in the specified sequence, with a 20 second gap between jars. The jars were given to the assessors blind in random permutations, with each volunteer smelling all three permutations in duplicate.
(§3) 0: no malodour present 1: strong reduction in malodour 2 medium reduction in malodour 3: weak malodour reduction 4: no change from control 5: worse than control
(§4) Approx. 20 trained volunteers did participate in each study twice.

[3] = Sensory study in jars: malodour score by trained volunteers, HMHA malodour; set-up: species or system human; conditions: 0-5 scale (4 = no change from control); HMHA (50 ul @ 0.01%) and 200 ul ORIVOL @ 0.1%
Protocol: as §1
as §2, with “Sensory studies were performed following the procedure described in Example 5. For” for “For”, “the jars” for “the jar”, “the maldodour)” for “the malodour)”
as §3, §4

[4] = Sensory study in jars: malodour score by trained volunteers, IVA malodour; set-up: species or system human; conditions: 0-5 scale (4 = no change from control); IVA (50 ul @ 0.06%) and 200 ul ORIVOL @0.1%
Protocol: as §1
as §2, with “Sensory studies were performed following the procedure described in Example 5. For” for “For”, “the jars” for “the jar”, “the maldodour)” for “the malodour)”
as §3, §4

[5] = Sensory study in jars: malodour score by trained volunteers, MO malodour; set-up: species or system human
Protocol: as §1
as §2, with “Sensory studies were performed following the procedure described in Example 5. For” for “For”, “the jars” for “the jar”, “the maldodour)” for “the malodour)”
as §3, §4

| Compound | Sensory score [1] | further results |
| --- | --- | --- |
| CC(CO)CC1CCC(C(C)C)CC1 (stereo not shown) [Compound 5.1] | ++++ |  |
| CC(C)C1CCCC(C(C)C(C)CO)C1 (stereo not shown) [Compound 5.2, 3-(3-isopropylcyclohexyl)-2-methylbutan-1-ol] | ++++ |  |
| CC(CO)CC1CCCC(C(C)(C)C)C1 (stereo not shown) [Compound 5.3, 3-(3-tert-butylcyclohexyl)-2-methylpropan-1-ol] | ++++ |  |
| CCC(C)(C)C1CCC(O)CC1 (stereo not shown) [Compound 5.4] | ++++ |  |
| OC1CCCCCCCCCCC1 [Compound 5.5] | +++ |  |
| CC(C)CC1CCC(CC(C)CO)CC1 (stereo not shown) [Compound 5.6, 3-(4-isobutylcyclohexyl)-2-methylpropan-1-ol] | +++ |  |
| OC1CCC(C2CCCCC2)CC1 (stereo not shown) [Compound 5.7] | +++ |  |
| OC1CCCCCCCCCC1 [Compound 5.9] | +++ |  |
| OC1CCCCCCCCCCCC1 [Compound 5.10] | ++++ |  |
| CC1(O)CCCCCCCCCCCC1 [Compound 5.11] | ++++ |  |
| OC1CCCCCCCCCCCCCC1 [Compound 5.12] | ++++ |  |
| CCC(C)(C)C1CCC(O)CC1 (stereo not shown) [ORIVOL, 4-(tert-pentyl)cyclohexanol] |  | Malodour Score (arith. means) ([2]; DMDS 50 ul @ 0.5% and 200 ul ORIVOL @0.1%): 2.862; Malodour Score (arith. means) ([2]; DMDS (50 ul @ 0.06%) and 200 ul ORIVOL): 0.91; Malodour Score (arith. means) ([2]; DMDS (50 ul @ 0.5%) and 200 ul ORIVOL): 1.46; reduction on malodour perceivable by the human nose compared to the malodour taken alone ([2]; DMDS, Table 1, even at very low concentrations): significant reduction; Malodour Score (arith. means) [3]: 2.194; Malodour Score (arith. means) [4]: 2.733; Malodour Score (arith. means) ([5]; 0-5 scale (4 = no change from control), MO (50 ul @ 0.005%) and 200 ul ORIVOL @ 0.1%): 2.375; reduction on malodour perceivable by the human nose compared to the malodour taken alone ([5]; MO, IVA and HMHA, Table 2): significant reduction |
